This passage reports melting point results from patent publication US20120283217A1, “MODULATORS OF AMYLOID-BETA PRODUCTION” (SATORI PHARMACEUTICALS, INC., priority 2006, published 2012).

`C/C=C1/CCC2C3CC=C4C[C@@H](O)CC[C@]4(C)C3CC[C@]12C` (stereo partly shown): the melting point (in general, the temperature of the solid-liquid transition) is 168 to 170 °C.

As to `C/C=C1/C(=O)CC2C3CC=C4C[C@@H](O)CC[C@]4(C)C3CC[C@]12C` (stereo partly shown), the melting point is 124 to 126 °C.

In turn, `C/C=C1/C(=O)C[C@H]2[C@@H]3CC[C@H]4C[C@@H](O[Si](C)(C)C(C)(C)C)CC[C@]4(C)[C@H]3CC[C@]12C` (stereo in doubt) had a melting point of 210 to 212 °C.

Molecule `CC(C)(C)[Si](C)(C)O[C@H]1CC[C@@]2(C)C(=CC[C@@H]3[C@@H]2CC[C@]2(C)C(=O)CC[C@@H]32)C1` [Compound I-13] displayed a melting point of 150 to 152 °C.

In turn, `COC(=O)C(=O)C[C@@H](C)[C@H]1CC[C@@]2(C)C3CCC4C(C)(C)[C@@H](OC(C)=O)CC[C@@]45C[C@@]35CC[C@]12C` (stereo in doubt) [Compound I-20] displayed a melting point of 120 to 122 °C.

`C/C=C1\C(=O)C[C@H]2[C@@H]3CC=C4C[C@@H](O)CC[C@]4(C)[C@H]3CC[C@]12C` registered a melting point of 112 to 113 °C.

`CC(=O)O[C@H]1CC[C@]23C[C@]24CC[C@]2(C)[C@@H]([C@H](C)CCC(=O)O)CC[C@@]2(C)C4CCC3C1(C)C` (stereo in doubt) [Compound I-4, 3-β-O-acetyl-25,26,27-Trinorcycloartan-24-oic acid] yielded a melting point of 201 to 212 °C.

On to `CC(C)(C)[Si](C)(C)O[C@H]1CC[C@@]2(C)[C@@H](CC[C@@H]3[C@@H]2CC[C@]2(C)C(=O)CC[C@@H]32)C1`, for which the melting point was 159 to 162 °C.

The molecule `C=C[C@@H](C)[C@H]1CC[C@@]2(C)[C@@H]3CC[C@H]4C(C)(C)[C@@H](OC(C)=O)CC[C@@]45C[C@@]35CC[C@]12C` came in with a melting point of 145 to 147 °C.

`C/C=C1/C(O)CC2C3CC=C4C[C@@H](O[Si](C)(C)C(C)(C)C)CC[C@]4(C)C3CC[C@]12C` (stereo in doubt) [Compound I-7]: the melting point is 137 to 139 °C.

Turning to `CC(C#N)[C@H]1[C@@H](O)CC2C3CC=C4C[C@@H](O[Si](C)(C)C(C)(C)C)CC[C@]4(C)C3CC[C@@]21C` (stereo in doubt) [Compound I-10], the melting point is 290 to 292 °C.

The molecule `CC(=O)O[C@H]1CC[C@]23C[C@]24CC[C@]2(C)[C@@H]([C@H](C)CCC(=O)C(F)(F)F)CC[C@@]2(C)[C@@H]4CC[C@H]3C1(C)C` had a melting point of 133 to 135 °C.

`C/C=C1/[C@H](O)C[C@H]2[C@@H]3CC[C@H]4C[C@@H](O[Si](C)(C)C(C)(C)C)CC[C@]4(C)[C@H]3CC[C@]12C` (stereo in doubt) displayed a melting point of 145 to 147 °C.

As for `C[C@H](C1CO1)[C@H]1C(=O)C[C@H]2[C@@H]3CC=C4C[C@@H](O[Si](C)(C)C(C)(C)C)CC[C@]4(C)[C@H]3CC[C@]12C` (stereo partly shown), the melting point lay within 103 to 104 °C.

As for `CC(=O)O[C@H]1CC[C@]23C[C@]24CC[C@]2(C)[C@@H]([C@H](C)CCC5OC5(C)C)CC[C@@]2(C)[C@@H]4CC[C@H]3C1(C)C` (stereo partly shown), the melting point was in the range of 141 to 143 °C.

In the case of `C/C=C1/CC[C@H]2[C@@H]3CC[C@H]4C[C@@H](O[Si](C)(C)C(C)(C)C)CC[C@]4(C)[C@H]3CC[C@]12C` (stereo in doubt), the melting point lay within 136 to 137 °C.

Take `C/C=C1\C(=O)C[C@H]2[C@@H]3CC=C4C[C@@H](O[Si](C)(C)C(C)(C)C)CC[C@]4(C)[C@H]3CC[C@]12C`: the melting point lay within 138 to 142 °C.

`C/C=C1/C(=O)C[C@H]2[C@@H]3CC=C4C[C@@H](O[Si](C)(C)C(C)(C)C)CC[C@]4(C)[C@H]3CC[C@]12C` [Compound I-8] gave a melting point of 161 to 163 °C.

As to `C/C=C1/C(O)CC2C3CC=C4C[C@@H](O)CC[C@]4(C)C3CC[C@]12C` (stereo partly shown), the melting point was in the range of 151 to 154 °C.

`C/C=C1/CC[C@H]2[C@@H]3CC=C4C[C@@H](O[Si](C)(C)C(C)(C)C)CC[C@]4(C)[C@H]3CC[C@]12C` [Compound I-6] gave a melting point of 128 to 130 °C.

As for `C[C@H](C(O)CO)C1C(=O)C[C@H]2[C@@H]3CC=C4C[C@@H](O[Si](C)(C)C(C)(C)C)CC[C@]4(C)[C@H]3CC[C@]12C` (stereo partly shown), the melting point was 172 to 175 °C.

`CC(=O)O[C@H]1CC[C@]23C[C@]24CC[C@]2(C)[C@@H]([C@H](C)CC(=O)C(C#N)=P(c5ccccc5)(c5ccccc5)c5ccccc5)CC[C@@]2(C)C4CCC3C1(C)C` (stereo in doubt) [Compound I-19]: the melting point lay within 203 to 205 °C.

On to `C=C[C@@H](C)[C@H]1C2(CC3C4CC=C5C[C@@H](O[Si](C)(C)C(C)(C)C)CC[C@]5(C)C4CC[C@@]31C)OCCO2` (stereo partly shown), for which the melting point was in the range of 112 to 114 °C.

`C=C[C@@H](C)[C@H]1[C@H](O)C[C@H]2[C@@H]3CC=C4C[C@@H](O[Si](C)(C)C(C)(C)C)CC[C@]4(C)[C@H]3CC[C@]12C` had a melting point of 156 to 158 °C.

In turn, `COC(=O)C(=O)C[C@@H](C)[C@H]1CC[C@@]2(C)C3CCC4C(C)(C)[C@@H](OC(C)=O)CC[C@]4(C)C3CC[C@]12C` (stereo partly shown) showed a melting point of 125 to 127 °C.

The molecule `CC(=O)O[C@H]1CC[C@]23C[C@]24CC[C@]2(C)[C@@H]([C@H](C)CC(=O)O)CC[C@@]2(C)C4CCC3C1(C)C` (stereo in doubt) [Compound I-17, 3β-Acetoxy-9,19-Cyclo-4,4,14-trimethyl-24-norchol-23-oic acid] registered a melting point of 222 to 224 °C.

Regarding `C=C[C@@H](C)[C@H]1C(=O)CC2C3CC=C4C[C@@H](O)CC[C@]4(C)C3CC[C@@]21C` (stereo partly shown), the melting point lay within 125 to 127 °C.

For the molecule `C=C[C@@H](C)[C@H]1C(=O)C[C@H]2[C@@H]3CC[C@H]4C[C@@H](O[Si](C)(C)C(C)(C)C)CC[C@]4(C)[C@H]3CC[C@]12C`, the melting point lay in the range of 132 to 134 °C.

`C[C@H](C#N)[C@H]1C(=O)C[C@H]2[C@@H]3CC=C4C[C@@H](O)CC[C@]4(C)[C@H]3CC[C@]12C` returned a melting point of 124 to 126 °C.

`CC(=O)O[C@H]1CC[C@]23C[C@]24CC[C@]2(C)[C@@H]([C@H](C)CCC5(C(C)C)CO5)CC[C@@]2(C)[C@@H]4CC[C@H]3C1(C)C` (stereo partly shown) returned a melting point of 129 to 131 °C.

In turn, `CC(=O)O[C@H]1CC[C@]23C[C@]24CC[C@]2(C)[C@@H]([C@H](C)CCC(O)C(C)C)CC[C@@]2(C)[C@@H]4CC[C@H]3C1(C)C` (stereo partly shown) returned a melting point of 126 to 128 °C.

Regarding `CC(=O)O[C@H]1CC[C@]23C[C@]24CC[C@]2(C)[C@@H]([C@H](C)CCC(=O)C(C)C)CC[C@@]2(C)C4CCC3C1(C)C` (stereo partly drawn) [Compound I-3, 24-Oxocycloartanol-3-β-O-acetate], the melting point was in the range of 119 to 121 °C.

With `CC(=O)O[C@H]1CC[C@]23C[C@]24CC[C@]2(C)[C@@H]([C@H](C)CC(=O)C(F)(F)F)CC[C@@]2(C)C4CCC3C1(C)C` (stereo in doubt) [Compound I-18, 3β-Acetoxy-9,19-Cyclo-4,4,14-trimethyl-23-oxo-24-trifluorocholane], the melting point is 170 to 173 °C.

Molecule `CC(=O)O[C@H]1CC[C@]2(C)C3CC[C@]4(C)[C@@H]([C@H](C)CC(=O)O)CC[C@@]4(C)C3CCC2C1(C)C` (stereo partly shown) registered a melting point of 203 to 205 °C.
